Laboratory results: paper PMC12720098, “Prolintane analogs as hybrid monoamine transporter ligands: Structural determinants and species differences” (The Journal of Biological Chemistry, 2025)
Like-named read-outs stand apart in the source and are kept apart here.

How the values were obtained:
hDAT = target: T1, hDAT (Homo sapiens, UniProt Q01959); assay: Batch release assay ([3H]MPP+) in transfected HEK293 cells; assay type: cell-based; settings: % efflux of total uptake, compounds approximately at IC50 concentration
T1 construct: expressed in transfected cells
Experimental: (§1) Batch release assays were performed as described previously ([44]). In brief, HEK293 cells stably expressing monoamine transporters were seeded similar to the procedure used for uptake inhibition assays. A day after seeding cells were pre-loaded with 50 μl/well 0.015 μM [^3H]MPP^+ (hDAT, hNET), or 0.08 μM [^3H]5-HT (hSERT) for 20 min at 37 °C. Then cells were washed four times for 3 to 4 min each and further incubated with KHB or KHB + monensin. After 10 min of incubation, two (screening) to four (full traces; hSERT) 2 min incubations were performed to establish a baseline release without substance. […] Each fraction was transferred to an empty well in the 96-well plate. For screening, a known inhibitor (hDAT, hNET: 50 μM GBR12909) and releaser (hDAT, hNET: 10 μM S-(+)-amphetamine) were used as controls. Ultima Gold XR scintillation cocktail was added to the remaining cells, and each well contained a release fraction. The counted radioactivity in the respective fraction was expressed as a percentage of total radioactivity at the start of the fraction.
(§2) Half-maximal inhibitory concentrations (IC50) were obtained from fitting a sigmoidal dose–response ( Y=Bottom+Top−Bottom/1+10^((LogIC50−X)·HillSlope) ) in GraphPad Prism 10.3.1 (GraphPad Software Inc.). Uptake inhibition data were evaluated by one-way ANOVA followed by Tukey's multiple comparisons test. Release data were analyzed using a two-way ANOVA (batch release) or a mixed-effects model with Geisser-Greenhouse correction (time-dependent traces) employing Šidák correction for comparing differences between compounds with or without the addition of monensin.

hNET = target: T2, hNET (Homo sapiens, UniProt P23975); assay: as above; assay type: cell-based; settings: % efflux of total uptake, compounds approximately at IC50 concentration
T2 construct: expressed in transfected cells
Experimental: as §1, §2

native HEK293 cells = assay: Whole-cell patch-clamp control in native HEK293 cells without transfection; assay type: cell-based, human; settings: prolintane 30 µM, 5-HT 10 µM (Fig. S3)
Experimental: One day prior to recording, either native HEK293 cells or HEK293 cells stably expressing monoamine transporters were seeded at low density onto PDL-coated 35 mm dishes. Patch-clamp experiments were conducted at a holding potential of −60 mV, with substrate-induced currents recorded at room temperature (20–24 °C) using an […] amplifier and pClamp 11.2 software (MDS Analytical Technologies). During recordings, cells were continuously superfused via a DAD-12 perfusion system and an 8-tube manifold (ALA Scientific Instruments), delivering an external solution composed of 140 mM NaCl, 2.5 mM CaCl2, 3 mM KCl, 2 mM MgCl2, 20 mM glucose, and 10 mM HEPES, with pH adjusted to 7.3 using NaOH. The intracellular pipette solution, designed to mimic physiological ionic conditions, contained 133 mM potassium gluconate, 5.9 mM NaCl, 1 mM CaCl2, 0.7 mM MgCl2, 10 mM HEPES, and 10 mM EGTA, with pH set to 7.2 using KOH. Currents were filtered at 1 kHz and digitized at 10 kHz via a Digidata 1550 digitizer (MDS Analytical Technologies), followed by analysis in Clampfit 10.2 (Molecular Devices). Substance-induced currents were normalized to the current elicited by a saturating concentration of 5-HT (10 μM) of the same cell. Holding currents were subtracted, and a 50 Hz digital Gaussian low-pass filter was applied to the traces for further analysis.

hSERT = target: T3, hSERT (Homo sapiens, UniProt P31645); set-up: method as in PMID 30397775; settings: cited from earlier work
T3 construct: expressed in transfected cells

mice = system: mice; set-up: method as in PMID 34896117; settings: moderate and high doses ref 2; cited from earlier work
humans = system: humans; set-up: method as in PMID 4392006, PMID 7437258; settings: dose range of 10–30 mg ref 15, 16; cited from earlier work
rSERT = rSERT (Rattus norvegicus, UniProt P31652); assay type: cell-based; set-up: expressed in transfected cells; settings: for Mean diff, rSERT efflux ± Mon (Šídák's multiple comparisons test): drug alone vs drug + monensin (Mon)
Experimental: A day prior to the experiment, HEK293 cells stably expressing hSERT or rat SERT (rSERT) were seeded at a density of 100,000 cells per channel into 6 channel flow ibidi slides (Gräfelfing, Germany). On the day of the experiments, cells were preloaded with 0.1 μM [^3H]5-HT at 37 °C, 5% CO2 for 20 min. Subsequently, the slides were transferred to the superfusion apparatus ([59]). Cells were then washed with KHB for 15 min under a constant flow of 0.5 ml/min. Fractions were collected every 2 min in 8 ml vials containing 2 ml scintillation cocktail. Collection began with three baseline fractions using KHB, followed by four additional basal release fractions with KHB, either with or without 10 μM monensin. […] To assess residual radioactivity within the cells, they were lysed with 1% sodium dodecyl sulfate (SDS), and three final fractions were obtained. The measured tritiated substrate in each fraction was expressed as a percentage of the initial tritiated substrate present at the start of that fraction.
Uptake inhibition data were evaluated by one-way ANOVA followed by Tukey's multiple comparisons test. Release data were analyzed using a two-way ANOVA (batch release) or a mixed-effects model with Geisser-Greenhouse correction (time-dependent traces) employing Šidák correction for comparing differences between compounds with or without the addition of monensin.

T2 sequence (P23975 whole entry): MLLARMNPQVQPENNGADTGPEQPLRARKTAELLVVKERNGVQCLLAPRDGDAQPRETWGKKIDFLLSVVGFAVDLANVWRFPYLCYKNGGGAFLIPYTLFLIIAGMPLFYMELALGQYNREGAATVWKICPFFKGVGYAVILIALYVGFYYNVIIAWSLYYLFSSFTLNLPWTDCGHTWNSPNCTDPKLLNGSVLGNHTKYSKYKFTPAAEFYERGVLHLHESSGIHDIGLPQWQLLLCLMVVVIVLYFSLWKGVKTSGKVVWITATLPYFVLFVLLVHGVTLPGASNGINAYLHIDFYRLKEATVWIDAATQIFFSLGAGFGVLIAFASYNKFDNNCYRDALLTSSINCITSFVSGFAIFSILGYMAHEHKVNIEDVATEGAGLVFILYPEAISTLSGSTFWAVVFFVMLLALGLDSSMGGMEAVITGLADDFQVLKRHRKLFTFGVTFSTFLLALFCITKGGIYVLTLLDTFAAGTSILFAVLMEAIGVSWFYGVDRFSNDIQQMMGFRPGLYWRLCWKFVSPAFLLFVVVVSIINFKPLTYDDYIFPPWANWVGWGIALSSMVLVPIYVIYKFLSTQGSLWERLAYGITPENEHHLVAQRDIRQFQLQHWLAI
Sequence of rSERT (P31652 whole entry, the tested form may be a part): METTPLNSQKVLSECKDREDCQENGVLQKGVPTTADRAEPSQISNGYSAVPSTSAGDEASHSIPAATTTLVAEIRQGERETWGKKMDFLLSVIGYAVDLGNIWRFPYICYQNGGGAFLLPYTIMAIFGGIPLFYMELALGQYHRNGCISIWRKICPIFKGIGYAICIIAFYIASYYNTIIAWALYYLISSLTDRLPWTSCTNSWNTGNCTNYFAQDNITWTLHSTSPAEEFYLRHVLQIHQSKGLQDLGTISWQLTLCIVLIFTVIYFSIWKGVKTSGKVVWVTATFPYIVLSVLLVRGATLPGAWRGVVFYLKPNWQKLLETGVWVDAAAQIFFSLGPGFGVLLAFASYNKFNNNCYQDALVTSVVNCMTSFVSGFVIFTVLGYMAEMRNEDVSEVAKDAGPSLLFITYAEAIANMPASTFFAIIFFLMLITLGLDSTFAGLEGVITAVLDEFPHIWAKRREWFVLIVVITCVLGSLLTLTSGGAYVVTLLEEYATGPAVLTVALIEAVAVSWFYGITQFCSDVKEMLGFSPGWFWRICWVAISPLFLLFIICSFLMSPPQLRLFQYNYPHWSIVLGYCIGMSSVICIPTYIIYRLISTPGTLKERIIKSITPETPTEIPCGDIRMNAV
T1 sequence (Q01959 whole entry): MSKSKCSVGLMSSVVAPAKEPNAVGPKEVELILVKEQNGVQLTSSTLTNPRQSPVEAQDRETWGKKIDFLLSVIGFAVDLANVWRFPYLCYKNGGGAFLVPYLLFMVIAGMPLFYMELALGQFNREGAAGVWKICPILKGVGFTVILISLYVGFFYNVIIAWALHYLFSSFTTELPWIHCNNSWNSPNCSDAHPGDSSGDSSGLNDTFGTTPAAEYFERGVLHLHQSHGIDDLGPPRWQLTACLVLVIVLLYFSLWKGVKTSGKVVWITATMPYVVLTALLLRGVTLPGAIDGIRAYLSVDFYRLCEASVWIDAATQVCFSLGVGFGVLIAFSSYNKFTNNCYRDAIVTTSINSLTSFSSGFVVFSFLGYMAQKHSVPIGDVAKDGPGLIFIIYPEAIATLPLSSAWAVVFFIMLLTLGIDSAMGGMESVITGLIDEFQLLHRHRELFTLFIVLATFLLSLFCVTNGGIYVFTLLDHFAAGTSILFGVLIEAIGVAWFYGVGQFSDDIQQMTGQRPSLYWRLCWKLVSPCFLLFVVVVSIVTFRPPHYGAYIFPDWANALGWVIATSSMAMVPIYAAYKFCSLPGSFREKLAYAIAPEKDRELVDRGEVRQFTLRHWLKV
T3 sequence (P31645 whole entry): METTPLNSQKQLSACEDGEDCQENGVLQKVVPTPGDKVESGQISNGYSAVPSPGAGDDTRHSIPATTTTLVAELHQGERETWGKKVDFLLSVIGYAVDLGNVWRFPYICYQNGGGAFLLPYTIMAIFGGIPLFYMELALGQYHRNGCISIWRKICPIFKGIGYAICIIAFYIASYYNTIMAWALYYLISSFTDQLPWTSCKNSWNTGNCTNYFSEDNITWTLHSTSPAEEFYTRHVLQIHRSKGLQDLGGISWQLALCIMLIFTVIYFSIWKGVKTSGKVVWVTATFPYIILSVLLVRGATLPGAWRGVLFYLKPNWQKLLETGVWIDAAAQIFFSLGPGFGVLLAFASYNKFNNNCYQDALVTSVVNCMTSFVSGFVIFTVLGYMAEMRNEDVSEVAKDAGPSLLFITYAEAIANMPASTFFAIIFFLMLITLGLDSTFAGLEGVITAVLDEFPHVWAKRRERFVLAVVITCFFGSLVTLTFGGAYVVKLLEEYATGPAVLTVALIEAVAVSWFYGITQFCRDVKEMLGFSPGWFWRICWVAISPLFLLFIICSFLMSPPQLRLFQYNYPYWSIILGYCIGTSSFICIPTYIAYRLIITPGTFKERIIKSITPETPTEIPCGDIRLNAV

SMILES: CCCC(Cc1ccccc1F)N1CCCC1 (centres unmarked) [2-Fluoroprolintane, 1-[1-(2-fluorophenyl)pentan-2-yl]pyrrolidine]
- hDAT-mediated efflux, predicted (LS) mean diff, No mon - Mon (hDAT): -0.6425
- hNET-mediated efflux, predicted (LS) mean diff, No mon - Mon (hNET): 0.3867

SMILES: CCCC(Cc1ccccc1C)N1CCCC1 (centres unmarked) [2-Methylprolintane, 1-[1-(2-methylphenyl)pentan-2-yl]pyrrolidine]
- hDAT-mediated efflux, predicted (LS) mean diff, No mon - Mon (hDAT): -0.04333
- hNET-mediated efflux, predicted (LS) mean diff, No mon - Mon (hNET): -0.3417

SMILES: CCCC(Cc1cccc(F)c1)N1CCCC1 (centres unmarked) [3-Fluoroprolintane, 1-[1-(3-fluorophenyl)pentan-2-yl]pyrrolidine]
- hDAT-mediated efflux, predicted (LS) mean diff, No mon - Mon (hDAT): 0.0325
- hNET-mediated efflux, predicted (LS) mean diff, No mon - Mon (hNET): 0.3678

SMILES: CCCC(Cc1cccc(C)c1)N1CCCC1 (centres unmarked) [3-Methylprolintane, 1-[1-(3-methylphenyl)pentan-2-yl]pyrrolidine]
- hDAT-mediated efflux, predicted (LS) mean diff, No mon - Mon (hDAT): -0.702
- hNET-mediated efflux, predicted (LS) mean diff, No mon - Mon (hNET): -0.8634

SMILES: CCCC(Cc1ccc(F)cc1)N1CCCC1 (centres unmarked) [4-Fluoroprolintane, 1-[1-(4-fluorophenyl)pentan-2-yl]pyrrolidine]
- hDAT-mediated efflux, predicted (LS) mean diff, No mon - Mon (hDAT): -0.2875
- hNET-mediated efflux, predicted (LS) mean diff, No mon - Mon (hNET): 0.3845

SMILES: CCCC(Cc1ccc(C)cc1)N1CCCC1 (centres unmarked) [4-Methylprolintane, 1-[1-(4-methylphenyl)pentan-2-yl]pyrrolidine]
- hDAT-mediated efflux, predicted (LS) mean diff, No mon - Mon (hDAT): -0.8967
- hNET-mediated efflux, predicted (LS) mean diff, No mon - Mon (hNET): -0.3451

SMILES: CCCC(Cc1ccccc1)N1CCCC1 (centres unmarked) [Prolintane, 1-(1-phenylpentan-2-yl)pyrrolidine]
- hDAT-mediated efflux, predicted (LS) mean diff, No mon - Mon (hDAT): 0.1383
- hNET-mediated efflux, predicted (LS) mean diff, No mon - Mon (hNET): -0.3446
- current in native HEK293 cells without transfection (native HEK293 cells): do not induce currents
- current in native HEK293 cells without transfection (native HEK293 cells; listed as prolintane): no current could be recorded
- effects at hSERT, fold weaker than at hDAT and hNET (hSERT): approximately 10 fold
- abuse-related behavioural effects (mice): rewarding and reinforcing effects
- clinical effects (humans): dose-dependent psychostimulant effects, sympathomimetic effects and reduced total rapid eye movement (REM) sleep
- Mean diff, rSERT efflux ± Mon (Šídák's multiple comparisons test) (rSERT; Row 1 (time fraction)): -0.3272
- Mean diff, rSERT efflux ± Mon (Šídák's multiple comparisons test) (rSERT; Row 2 (time fraction)): -0.2896
- Mean diff, rSERT efflux ± Mon (Šídák's multiple comparisons test) (rSERT; Row 3 (time fraction)): -0.1547
- Mean diff, rSERT efflux ± Mon (Šídák's multiple comparisons test) (rSERT; Row 4 (time fraction)): -0.119
- Mean diff, rSERT efflux ± Mon (Šídák's multiple comparisons test) (rSERT; Row 5 (time fraction)): -0.6706
- Mean diff, rSERT efflux ± Mon (Šídák's multiple comparisons test) (rSERT; Row 6 (time fraction)): -0.9234
- Mean diff, rSERT efflux ± Mon (Šídák's multiple comparisons test) (rSERT; Row 7 (time fraction)): -1.427
- Mean diff, rSERT efflux ± Mon (Šídák's multiple comparisons test) (rSERT; Row 8 (time fraction)): -2.621
- Mean diff, rSERT efflux ± Mon (Šídák's multiple comparisons test) (rSERT; Row 9 (time fraction)): -2.612
- Mean diff, rSERT efflux ± Mon (Šídák's multiple comparisons test) (rSERT; Row 10 (time fraction)): -2.362
- Mean diff, rSERT efflux ± Mon (Šídák's multiple comparisons test) (rSERT; Row 11 (time fraction)): -2.416
- Mean diff, rSERT efflux ± Mon (Šídák's multiple comparisons test) (rSERT; Row 12 (time fraction)): -2.279
- [3H]5-HT releasing profile in cells expressing rSERT (rSERT; superfusion, HEK293 cells, with and without monensin): almost identical pseudo-efflux releasing profile
